The text below walks through data of patent US8895725B2, “Use of 9, 10-anthraquinone compounds” (Shanghai Institute of Pharmaceutical Industry, priority 2008, dated 2014).

Series [1] has as its system HCV. Nature of the series: Focus reduction assay of HCV infection. The class given is cell-based. To be noted: for inhibition effect towards HCV: summary in words; for inhibition at 100 µg/mL: 100 μg/ml; for Inhibition Rate of the number of Virus foci (%): cells pre-incubated 1 hour with interferon. The method, then: The stock solutions with a concentration of 20 mg/ml were prepared by dissolving the samples in DMSO and were kept at 4° C. When testing, the stored stock solutions were diluted to 5 mg/ml and 2 mg/ml with DMSO.
(§1) The derivative cell line of Huh7 and the virus strain of HCV were used in this experiment. The virus strain can produce high-titer and infectious virus particles of HCV in the cells.
(§2) The cells were inoculated in 96-well flat-bottomed plates at a concentration of 1×10^4/100 μl/well and cultivated overnight. The HCV supernatant was diluted to 1×10^3 ffu/ml with complete medium (DMEM contains 10% fetal bovine serum, 100 U/ml penicillin and 100 μg/ml streptomycin) and infected the cells at 50 ffu/well.
The sample solutions with different concentrations (2 mg/ml and 1 mg/ml) were respectively diluted in complete medium at a volume ratio of 1:50 to reach the concentrations of 40 μg/ml and 20 μg/ml. […] After 1 hour of incubation at room temperature, the culture medium in the 96-well flat-bottomed plates was discarded, then 100 μl of the above mixed solution was added to each well, and then was cultured for 8 hours in 37° C. incubator containing 5% CO2. After that, the supernatant was discarded, then was washed once with phosphate buffer without calcium or magnesium ion (DPBS). 150 μl of fresh complete medium was added to each well, and then was cultured for 64 hours in 37° C. incubator containing 5% CO2. 150 μl of 4% paraformaldehyde (PFA) was added to each well, and was fixed at room temperature for 15 min. The supernatant was discarded, then was washed with DPBS for 3 times, and Immune fluorescence staining was conducted with anti HCV-E2 human monoclonal antibody and anti-human secondary antibody labeled by immunofluorescein, then was watched with fluorescence microscope and the amounts of virus colony were recorded.
In the negative control group, DMSO was used instead of the sample solutions, and other conditions were the same as that in sample testing.
The solution of the interferon was diluted to 5, 50 and 500 IU/ml respectively with complete medium, and were hatched for 1 hour with cells, then diluted virus solution was added. Other conditions were the same as that in the extract testing. The inhibition rate=(the amount of virus colony in the negative control group−the amount of viruscolony in the experimental group)/the amount of virus colony in the negative control group×100%.

In series [2] the test system is derivative cell line of Huh7. Description: Cytotoxicity (cell density versus negative control group). The class given is cell-based. Here is the method:
as §1, §2
Instructions to Cytotoxicity: Noncytotoxic=the cell density of the experimental group/the cell density of the negative control group[…] Cytotoxicity=the cell density of the experimental group/the cell density of the negative control group<80%

[3] abbreviates: Hepatitis C virus, Huh-7, 5 μg/ml, Huh7 derivative cells, read-out: Inhibition Rate of the number of Virus foci (%).
Where [4] appears, read: Hepatitis C virus, Huh-7, 20 μg/ml, Huh7 derivative cells, read-out: Inhibition Rate of the number of Virus foci (%).
Where [5] appears, read: Hepatitis C virus, Huh-7, 10 μg/ml, Huh7 derivative cells, read-out: Inhibition Rate of the number of Virus foci (%).
Where [6] appears, read: Hepatitis C virus, Huh-7, Huh7 derivative cells, read-out: Inhibition Rate of the number of Virus foci (%).
Where [7] appears, read: Hepatitis C virus, Huh-7, read-out: Inhibition Rate of the number of Virus foci (%).

≈ marks a conversion by molar mass, not a printed value. Entries after “also recorded” stand apart in the source; their conditions may differ. Read-outs that look alike come from different tables or passages of the source.

`O=c1cc(-c2ccc(O)cc2)oc2cc(O)cc(O)c12` [Apigenin, reference compound]: the inhibition (commonly the percentage by which the read-out fell short of the control) at 5 µg/mL in series [1] (setting [3]) is 11%. Moreover, the inhibition at 20 µg/mL in series [1] (setting [4]) is 47%.

With `Cc1cc(O)c2c(c1)C(=O)c1cc(O)cc(O)c1C2=O` [Emodin, 1,3,8-dihydroxyl-6-methyl anthraquinone], the inhibition at 5 µg/mL in series [1] (setting [3]) was determined as 52%. Besides, in series [1] (setting [5]), the inhibition at 10 µg/mL worked out at 79%. In series [1] (setting [4]), the inhibition at 20 µg/mL is 99%. In addition, in series [1], the “inhibition effect towards HCV” value is “obvious inhibition effect”.

Consider `O=C1c2cccc(O)c2C(=O)c2c(O)cccc21` [1,8-Dihydroxyl-9,10-anthraquinone, 1,8-dihydroxyl-9,10-anthraquinone], for which the inhibition at 0.04 µg/mL in series [1] (Hepatitis C virus, Huh-7, 0.04 μg/ml, Huh7 derivative cells, read-out: Inhibition Rate of the number of Virus foci (%)) came to 45%. The inhibition at 0.2 µg/mL in series [1] (Hepatitis C virus, Huh-7, 0.2 μg/ml, Huh7 derivative cells, read-out: Inhibition Rate of the number of Virus foci (%)) is 100%. Also, the “inhibition effect towards HCV” value in series [1] is on record as “obvious inhibition effect”.

In the case of `COc1cc(O)c2c(c1)C(=O)c1cc(C)cc(O)c1C2=O` [Physcion, 1,8-dihydroxyl-3-methoxy-6-methyl anthraquinone], in series [1] (Hepatitis C virus), the IC50 (usually the midpoint of a concentration-inhibition curve) turned out to be 8 ng/mL (≈ 0.0281 µM). Also, the inhibition at 5 µg/mL in series [1] (setting [3]) turned out to be 100%. For the same molecule, the inhibition at 20 µg/mL in series [1] (setting [4]) amounted to 100%. Besides, in series [1] (ranking in words), the “anti-HCV activity compared with the other compounds” value was “better than other compounds; also recorded: the best”. Also, the “inhibition effect towards HCV” value in series [1] was “obvious inhibition effect”. The Cytotoxicity entry in series [2] (5 μg/ml) and in series [2] (20 μg/ml) was “None” in each case.

Consider `COc1cc(O)c2c(c1)C(=O)c1cc(C)cc(O[C@@H]3OC(CO)[C@@H](O)C(O)C3O)c1C2=O` (stereo partly drawn) [Physcion-8-O-β-D-glucoside, physcion-8-O-β-D-glucoside], for which the inhibition at 100 µg/mL in series [1] (setting [6]) worked out at 40%. In addition, the “inhibition effect towards HCV” value in series [1] was “obvious inhibition effect”. The Cytotoxicity result in series [2] (100 μg/ml) is “None”.

For `O=C1c2ccccc2C(=O)c2ccccc21` [Anthraquinone, 9,10-anthraquinone], the inhibition at 5 µg/mL in series [1] (setting [3]) came out at 44%. Also, in series [1], the “inhibition effect towards HCV” value is “obvious inhibition effect”.

For `Cc1cc(O)c2c(c1)C(=O)c1cccc(O)c1C2=O` [Chrysophanic acid, 1,8-dihydroxyl-6-methyl anthraquinone], the inhibition at 5 µg/mL in series [1] (setting [3]) worked out at 21%. In addition, in series [1] (setting [5]), the inhibition at 10 µg/mL came out at 17%. The inhibition at 20 µg/mL in series [1] (setting [4]) came out at 48%. Besides, in series [1], the “inhibition effect towards HCV” value is “obvious inhibition effect”.

Take α-interferon [reference compound]: the results for the “Inhibition Rate of the number of Virus foci (%)” value in series [1] (5 IU/ml), in series [1] (50 IU/ml) and in series [1] (500 IU/ml) were 53%, 79% and 98%, respectively.

As for `O=C1c2ccccc2C(=O)c2c1cc(S(=O)(=O)[O-])c(O)c2O.[Na+]` [Alizarin Red S, 1,2-dihydroxylanthraquinone-3-sulfonate], the inhibition at 10 µg/mL in series [1] (setting [5]) is 22%. Further, in series [1], the “inhibition effect towards HCV” value was “obvious inhibition effect”.

On to `O=C1c2ccccc2C(=O)c2c1ccc(O)c2O` [Alizarin, 1,2-dihydroxyl-9,10-anthraquinone], for which, in series [1] (setting [7]), the inhibition at 10 µg/mL came out at 31%. Besides, the “inhibition effect towards HCV” value in series [1] is “obvious inhibition effect”. Also, the Cytotoxicity entry in series [2] (10 μg/ml) is listed as “None”.

Take `O=C1c2cccc(O)c2C(=O)c2c(O)cc(CO)cc21` [Aloe-emodin, 1,8-dihydroxyl-3-hydroxymethyl anthraquinone]: in series [1] (setting [3]), the inhibition at 5 µg/mL came to 95%. Moreover, the inhibition at 20 µg/mL in series [1] (setting [4]) stood at 100%. In addition, the “inhibition effect towards HCV” value in series [1] was “obvious inhibition effect”.

Turning to `O=C1c2ccccc2C(=O)c2c(O)ccc(O)c21` [1,4-dihydroxyl-9,10-anthraquinone], the inhibition at 5 µg/mL in series [1] (setting [7]) was 81%. For the same molecule, in series [1], the “inhibition effect towards HCV” value is given as “obvious inhibition effect”. In addition, the Cytotoxicity entry in series [2] (5 μg/ml) is “None”.

Consider `O=C(O)c1cc(O)c2c(c1)C(=O)c1cccc(O)c1C2=O` [Rhein, 1,8-dihydroxyl-3-carboxyl anthraquinone], for which, in series [1] (setting [7]), the inhibition at 5 µg/mL was 44% and the inhibition at 20 µg/mL is 82%. The “inhibition effect towards HCV” value in series [1] is on record as “obvious inhibition effect”. Moreover, the Cytotoxicity entry in series [2] (5 μg/ml) is recorded as “None”. Besides, the Cytotoxicity entry in series [2] (20 μg/ml) is reported as “None”.

For the molecule `Cc1cc(O[C@@H]2OC(CO)[C@@H](O)C(O)C2O)c2c(c1)C(=O)c1cc(O)cc(O)c1C2=O` (stereo partly drawn) [Emodin-8-O-β-D-glucoside, emodin-8-O-β-D-glucoside], the inhibition at 100 µg/mL in series [1] (setting [6]) amounted to 40%. Moreover, the “inhibition effect towards HCV” value in series [1] is recorded as “obvious inhibition effect”. The Cytotoxicity entry in series [2] (100 μg/ml) is listed as “None”.
